Data on seven compounds can be found in article PMC9494746 (Biochemistry, 2022).

Read-outs that look alike come from different tables or passages of the source.

The target in series [1] is hKMT2D SET domain (Win-SET protein that lost the Win motif by proteolysis) (human) (UniProt O14686).
Series [2] shares this target. This is another data set of the same source.
Series [3] deals with T1, SET/WRAD2 complex (Homo sapiens, UniProt O14686).
T1 construct: expressing amino acids 5308-5537 of the hKMT2D catalytic SET domain; 6xHis + TEV site (N, cleaved yes); made in house; host or cells: KMT2D Win-SET: Sf21 (baculovirus); H3 peptides bought from Chinese Peptide Company
The series is described as follows: Product and dead-end inhibitor studies, MTase-Glo. Format: biochemical. The arrangement: key to inhibition pattern: C = competitive; NC = noncompetitive; UC = uncompetitive. The procedure:
(§1) SET domain activity was monitored with a quantitative endpoint assay determining AdoHcy production using MTase-Glo by Promega.[39] Assays were performed as time courses at room temperature with buffer constituents, 50 mM Tris, pH 7.5, 50 mM NaCl, 1 mM DTT, 1% DMSO, and 0.005% w/v Triton X-100 in deionized water. […] Addition of 1 μL of 0.5% v/v TFA was used to stop the methylation reaction at defined time points; 1 μL of 6× concentrated MTase-Glo reagent was added to each well and incubated at room temperature. After 30 min, 6 μL of the prefiltered MTase-Glo detection reagent was added and incubated for a further 30 min at room temperature. Luminescence was measured using an Envision 2101 Multilabel plate reader, and product concentrations were calculated using an AdoHcy standard curve. Steady-state rates were obtained by plotting AdoHcy production over time and normalized to SET domain concentration. Experiments were performed in triplicate and expressed as the mean ± SD. Data were analyzed using nonlinear regression in GraphPad Prism v9.1.
Steady-state rates were measured in substrate-inhibitor matrix experiments. Dead-end inhibitor experiments were performed with the second substrate fixed at KM, while product inhibitor experiments fixed the second substrate at KM or 20× KM. Assays using 20× KM AdoMet used a cofactor adjusted to pH 7.5. […] Steady-state rates were globally fitted to competitive, uncompetitive, and noncompetitive inhibition (eqs 6, 7, and 8, respectively).
Competitive inhibition [drawing 6] 6 Uncompetitive inhibition [drawing 7] 7 Noncompetitive inhibition [drawing 8] 8 Mixed inhibition [drawing 9] 9 where ν is the initial rate, Vmax is the maximum velocity of the uninhibited reaction, [S] is the substrate concentration of the varied substrate, [I] is the inhibitor concentration, KM is the Michaelis–Menten constant, and Ki is the inhibition constant. To resolve any ambiguities in assigning inhibition type, the mixed inhibition model was used (eq 9), to derive the value of α, which is a measure of competitive or uncompetitive nature.

Series [4] concerns C[S+](CC[C@H](N)C(=O)[O-])C[C@H]1O[C@@H](n2cnc3c(N)ncnc32)[C@H](O)[C@@H]1O. The series is described as follows: purified protein, by the assay type. The class given is biochemical, human. The note with it: pH 7.5.
Series [5] deals with T1, SET/WRAD2 complex. The series is described as follows: Steady-state substrate specificity (peptide and nucleosome substrates), MTase-Glo. Format: biochemical. The procedure: as §1
(§2) Steady-state rates were measured in substrate matrix experiments. Data were globally fitted to ternary Bi–Bi and Ping–Pong models to obtain kcat and KM parameters (eqs 1 and 2).
The ternary Bi–Bi model [drawing 1] 1 The Ping–Pong model [drawing 2] 2 where ν is the initial rate, Vmax is the maximum velocity, [A] is the concentration of the varied substrate, [B] the concentration of the fixed substrate, KM^A and KM^B are the Michaelis constants of the varied and fixed substrates, respectively, and Kd is the dissociation constant of the varied substrate.
Target sequence in this assay (Q15291 whole entry, the tested form may be a part): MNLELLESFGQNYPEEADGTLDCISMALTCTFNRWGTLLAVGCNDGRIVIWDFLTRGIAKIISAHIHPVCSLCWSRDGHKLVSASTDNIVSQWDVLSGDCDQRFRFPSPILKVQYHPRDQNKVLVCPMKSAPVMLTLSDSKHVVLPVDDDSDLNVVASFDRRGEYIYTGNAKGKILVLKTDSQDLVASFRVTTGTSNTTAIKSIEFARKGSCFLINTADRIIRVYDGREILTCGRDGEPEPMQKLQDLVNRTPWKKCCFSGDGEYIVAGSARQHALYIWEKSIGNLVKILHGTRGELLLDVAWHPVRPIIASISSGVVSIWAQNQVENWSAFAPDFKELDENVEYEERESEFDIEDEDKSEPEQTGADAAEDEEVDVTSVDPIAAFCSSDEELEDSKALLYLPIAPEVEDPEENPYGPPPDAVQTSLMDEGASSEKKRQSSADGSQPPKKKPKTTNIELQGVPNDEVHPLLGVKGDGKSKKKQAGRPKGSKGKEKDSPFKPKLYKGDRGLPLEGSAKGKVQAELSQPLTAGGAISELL
Target sequence in this assay (Q9UBL3 95-628, further chain): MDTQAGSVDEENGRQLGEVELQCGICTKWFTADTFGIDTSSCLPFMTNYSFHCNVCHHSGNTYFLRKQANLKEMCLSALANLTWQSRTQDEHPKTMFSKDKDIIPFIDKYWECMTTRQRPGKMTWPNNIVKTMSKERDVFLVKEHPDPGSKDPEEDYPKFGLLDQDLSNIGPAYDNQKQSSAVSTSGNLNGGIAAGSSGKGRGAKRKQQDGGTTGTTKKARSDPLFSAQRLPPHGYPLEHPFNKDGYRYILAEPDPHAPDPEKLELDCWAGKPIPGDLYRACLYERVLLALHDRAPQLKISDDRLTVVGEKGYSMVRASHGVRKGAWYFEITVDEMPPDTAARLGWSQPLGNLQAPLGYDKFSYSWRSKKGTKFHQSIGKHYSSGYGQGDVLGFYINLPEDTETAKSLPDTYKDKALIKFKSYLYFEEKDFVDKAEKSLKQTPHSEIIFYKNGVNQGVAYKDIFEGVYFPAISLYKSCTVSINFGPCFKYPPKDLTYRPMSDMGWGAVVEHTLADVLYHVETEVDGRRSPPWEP
Target sequence in this assay (Q9C005 whole entry, further chain, the tested form may be a part): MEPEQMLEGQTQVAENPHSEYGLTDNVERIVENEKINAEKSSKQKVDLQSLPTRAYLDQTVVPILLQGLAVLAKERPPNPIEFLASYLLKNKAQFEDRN
Target sequence in this assay (O14686 5361-5537): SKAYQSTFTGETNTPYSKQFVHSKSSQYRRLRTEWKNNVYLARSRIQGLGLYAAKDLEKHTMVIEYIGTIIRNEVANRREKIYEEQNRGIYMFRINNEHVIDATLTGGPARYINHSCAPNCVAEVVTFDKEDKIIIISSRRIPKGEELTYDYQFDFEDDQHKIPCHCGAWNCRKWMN

Another series addresses T2, hKMT2D SET domain (Homo sapiens, UniProt O14686).
T2 construct: expressing amino acids 5308-5537 of the hKMT2D catalytic SET domain; 6xHis + TEV site (N, cleaved yes); made in house; host or cells: KMT2D Win-SET: Sf21 (baculovirus); H3 peptides bought from Chinese Peptide Company
Briefly: WRAD2 titration: MTase-Glo steady-state substrate matrix experiments. The class given is biochemical. The note with it: eq 1, read-out: Kd^(AdoMet). The procedure:
as §1, §2
The ternary Bi–Bi model [drawing 1] 1 The Ping–Pong model [drawing 2] 2 where ν is the initial rate, Vmax is the maximum velocity, [A] is the concentration of the varied substrate, [B] the concentration of the fixed substrate, KM^A and KM^B are the Michaelis constants of the varied and fixed substrates, respectively, and Kd is the dissociation constant of the varied substrate. […]

For series [6], the target named is T3, SET/Ash2L/RbBP5 minimal complex (Homo sapiens, UniProt O14686).
T3 construct: 6xHis + TEV site (N); made in house; RbBP5 peptide synthetic, Chinese Peptide Company
T3 sequence (O14686 5382-5537, one chain of several): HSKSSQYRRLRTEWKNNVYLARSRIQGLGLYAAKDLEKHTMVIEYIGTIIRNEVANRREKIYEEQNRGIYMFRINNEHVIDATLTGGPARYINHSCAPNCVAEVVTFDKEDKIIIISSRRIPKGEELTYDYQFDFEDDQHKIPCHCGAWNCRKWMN
The series is described as follows: Substrate matrix experiment with the minimal complex, MTase-Glo. Format: biochemical. The note with it: read-out: Kd^(AdoMet). The procedure: as §1
The ternary Bi–Bi model [drawing 1] 1 The Ping–Pong model [drawing 2] […]

The target in series [7] is T4, His-SET (5382–5537) + ASH2L (380-496-ISGRGS-539-598) + RbBP5 peptide (Homo sapiens, UniProt O14686).
T4 construct: made in house; RbBP5 peptide synthetic, Chinese Peptide Company
T4 sequence (O14686 5382-5537): as the sequence (O14686 5382-5537, one chain of several) above
Briefly: SPR binding assays (steady-state affinity). The note with it: minimal complex; 1:1 interaction model. Background: SPR reads the build-up and loss of mass on a sensor chip optically.
Description: Surface plasmon resonance experiments were performed using a T200 instrument (Cytiva) equipped with a research-grade NTA sensor S chip (Cytiva) at 20 °C. For immobilization, the instrument was primed with a buffer composed of 10 mM HEPES, pH 7.5, 150 mM NaCl, 0.5 mM TCEP, and 0.05% Tween 20. The NTA chip was conditioned with three 2 min injections of 50 mM NaOH/1 M NaCl and a 2 min injection of 250 mM EDTA. Protein and reference flow cells were then prepared by a 2 min injection of 1 mM NiCl2 and a 7 min injection of 0.2 M EDC/ 0.05 M NHS. Immediately, the protein (500 nM His-SET (5382–5537) + ASH2L (380-496-ISGRGS-539-598) + RbBP5 peptide in immobilization buffer) was injected over the measurement flow cell to the desired RU level, followed by deactivation with a 7 min injection of 1 M ethanolamine pH 8 of all flow cells. For binding measurements, the system was then primed in a running buffer consisting of 50 mM Tris pH 7.5, 150 mM NaCl, 1 mM TCEP, 1–2% DMSO, and 0.05% Tween 20. […] Data processing included solvent correction and blank subtraction. The steady-state data were analyzed using Biaevaluation/Insight Software 1.1 (GE Healthcare/Cytiva) using an implemented 1:1 interaction model.

The subject of series [8] is C[S+](CC[C@H](N)C(=O)[O-])C[C@H]1O[C@@H](n2cnc3c(N)ncnc32)[C@H](O)[C@@H]1O. The series is described as follows: Steady-state substrate specificity (peptide and nucleosome substrates), MTase-Glo. The class given is biochemical, human. The note with it: other: WRAD2, eq 1, pH 7.5.
The mark [9] stands for this setting: varied substrate AdoMet, fixed substrate at 20× KM.
The mark [10] stands for this setting: varied substrate AdoMet, fixed substrate at KM.
The mark [11] stands for this setting: varied substrate H3_1–21, fixed substrate at KM.

T2 sequence (Q9UBL3 95-628): as the sequence (Q9UBL3 95-628, further chain) above
T2 sequence (Q9C005 whole entry, further chain, the tested form may be a part): as the sequence (Q9C005 whole entry, further chain, the tested form may be a part) above
T2 sequence (O14686 5361-5537): as the sequence (O14686 5361-5537) above
T2 sequence (Q15291 whole entry, further chain, the tested form may be a part): as the sequence (Q15291 whole entry, the tested form may be a part) above
Chain of hKMT2D SET domain (Win-SET protein that lost the Win motif by proteolysis) (human) (O14686 5362-5537): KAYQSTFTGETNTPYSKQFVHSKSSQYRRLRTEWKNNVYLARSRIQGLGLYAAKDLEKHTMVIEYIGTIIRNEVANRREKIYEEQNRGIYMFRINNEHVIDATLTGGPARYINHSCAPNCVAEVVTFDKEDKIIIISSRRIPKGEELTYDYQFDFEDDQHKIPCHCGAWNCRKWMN
Chain of Ash2L (absent small or homoeotic 2-like), full length (Q9UBL3 whole entry): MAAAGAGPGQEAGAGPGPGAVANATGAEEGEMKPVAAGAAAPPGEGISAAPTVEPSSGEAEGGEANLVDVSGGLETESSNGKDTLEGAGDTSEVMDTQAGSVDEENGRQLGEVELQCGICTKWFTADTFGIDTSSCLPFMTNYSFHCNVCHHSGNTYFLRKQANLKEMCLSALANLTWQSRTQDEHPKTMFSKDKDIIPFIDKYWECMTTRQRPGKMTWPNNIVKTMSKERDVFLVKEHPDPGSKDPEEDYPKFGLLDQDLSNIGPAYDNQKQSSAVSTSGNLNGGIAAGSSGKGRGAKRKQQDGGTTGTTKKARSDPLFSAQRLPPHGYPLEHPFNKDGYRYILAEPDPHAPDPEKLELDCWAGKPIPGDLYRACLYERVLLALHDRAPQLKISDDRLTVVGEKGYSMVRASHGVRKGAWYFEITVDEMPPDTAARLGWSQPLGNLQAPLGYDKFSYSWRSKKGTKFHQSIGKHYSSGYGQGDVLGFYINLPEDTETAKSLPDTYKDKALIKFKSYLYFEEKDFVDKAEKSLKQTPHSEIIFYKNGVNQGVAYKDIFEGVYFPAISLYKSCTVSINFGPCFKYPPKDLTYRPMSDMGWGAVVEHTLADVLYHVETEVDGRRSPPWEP
Chain of RbBP5 (retinoblastoma-binding protein), full length (Q15291 whole entry): as the sequence (Q15291 whole entry, the tested form may be a part) above

“Ash2L (absent small or homoeotic 2-like), full length (from UniProt Q9UBL3 1-628) (natural protein)” had an H3 1-21 affinity (KM) of the SET domain with Ash2L alone, 1:1, 5 μM AdoMet in [1] of 2 fold. In addition, in series [2], the Kd assigned to Ash2L from the WRAD2 titration of H3 1-21 affinity (steady-state kinetics) was 4 nM.

Usually Ki stands for a dissociation constant, usually derived from enzyme kinetics or from competition with a known ligand. `Nc1ncnc2c1ncn2[C@@H]1O[C@H](CSCC[C@H](N)C(=O)O)[C@@H](O)[C@H]1O` [AdoHcy, S-adenosyl-L-homocysteine]: the Ki on SET/WRAD2 complex [3] (setting [9]) is 2290 ± 200 nM; at SET/WRAD2 complex [3] (setting [10]) it was 4950 ± 620 nM; on SET/WRAD2 complex [3] (setting [11]) it was 5380 ± 410 nM. Moreover, the inhibition pattern result is reported as “C” on SET/WRAD2 complex [3] (setting [9]); “C” on SET/WRAD2 complex [3] (setting [10]); “no inhibition” on SET/WRAD2 complex [3] (varied substrate H3_1–21, fixed substrate at 20× KM); “NC” at SET/WRAD2 complex [3] (setting [11]). In addition, the “α (mixed inhibition model)” value is given as 6.8 at SET/WRAD2 complex [3] (setting [9]), more than 1000 at SET/WRAD2 complex [3] (setting [10]) and 0.56 on SET/WRAD2 complex [3] (setting [11]).

As usually defined, the Km is the concentration of substrate that gives half-maximal velocity. Consider hKMT2D SET domain (Homo sapiens), for which the Km in [4] (other: 25 nM WRAD2, Ping–Pong model eq 2, substrate H3_1–21) was found to be 5.10 ± 0.32 µM; in [4] (other: [WRAD2] 0 nM, [SET] 125 nM, eq 1), 5.38 ± 1.0 µM; in [4] (other: [WRAD2] 0.125 nM, [SET] 125 nM, eq 1), 5.48 ± 1.25 µM; in [4] (other: [WRAD2] 0.5 nM, [SET] 125 nM, eq 1), 3.61 ± 0.51 µM; in [4] (other: [WRAD2] 1 nM, [SET] 125 nM, eq 1), 4.55 ± 0.62 µM; in series [4] (other: [WRAD2] 2 nM, [SET] 125 nM, eq 1), 4.18 ± 0.50 µM. Besides, the Km stood at 2.36 ± 0.28 µM in series [4] (other: [WRAD2] 4 nM, [SET] 125 nM, eq 1); 3.07 ± 0.16 µM in [4] (other: [WRAD2] 6.25 nM, [SET] 30 nM, eq 1); 3.89 ± 0.33 µM in series [4] (other: [WRAD2] 10 nM, [SET] 30 nM, eq 1); 4.77 ± 0.22 µM in [4] (other: [WRAD2] 15 nM, [SET] 30 nM, eq 1); 4.65 ± 0.34 µM in series [4] (other: [WRAD2] 25 nM, [SET] 30 nM, eq 1, substrate H3_1–21); 4.71 ± 0.25 µM in series [4] (other: [WRAD2] 125 nM, [SET] 30 nM, eq 1). Besides, the Km in series [4] (other: [WRAD2] […], [SET] 125 nM, eq 1) amounted to 6.28 ± 0.65 µM.

With “RbBP5 (retinoblastoma-binding protein), full length (from UniProt Q15291 1-538) (natural protein)”, the Kd assigned to RbBP5 from the WRAD2 titration of kcat (steady-state kinetics) in [2] was determined as 12 nM.

Usually Kd stands for the free concentration of one partner at which half of the binding sites on the other are occupied at equilibrium, for simple one-to-one binding. As to `C[S+](CC[C@H](N)C(=O)[O-])C[C@H]1O[C@@H](n2cnc3c(N)ncnc32)[C@H](O)[C@@H]1O` (stereo partly drawn) [AdoMet, S-adenosyl-L-methionine], the Kd on SET/WRAD2 complex [5] (eq 1, substrate Me1H3_1–21, read-out: Kd^(AdoMet)) came out at 3760 ± 490 nM; at SET/WRAD2 complex [5] (eq 1, substrate Me2H3_1–21, read-out: Kd^(AdoMet)) it was 40 nM; on hKMT2D SET domain ([WRAD2] 0 nM, [SET] 125 nM) it was 5930 ± 1200 nM; on hKMT2D SET domain ([WRAD2] 0.125 nM, [SET] 125 nM), 4990 ± 1500 nM; on hKMT2D SET domain ([WRAD2] 0.5 nM, [SET] 125 nM), 2930 ± 600 nM; at hKMT2D SET domain ([WRAD2] 1 nM, [SET] 125 nM), 1610 ± 580 nM. Besides, the Kd amounted to 610 ± 360 nM on hKMT2D SET domain ([WRAD2] 2 nM, [SET] 125 nM); 650 ± 380 nM at hKMT2D SET domain ([WRAD2] 4 nM, [SET] 125 nM); 1540 ± 360 nM on hKMT2D SET domain ([WRAD2] 6.25 nM, [SET] 30 nM); 1420 ± 560 nM on hKMT2D SET domain ([WRAD2] 10 nM, [SET] 30 nM); 990 ± 300 nM at hKMT2D SET domain ([WRAD2] 15 nM, [SET] 30 nM); 850 ± 480 nM at hKMT2D SET domain ([WRAD2] 25 nM, [SET] 30 nM, substrate H3_1–21). The Kd at hKMT2D SET domain ([WRAD2] 125 nM, [SET] 30 nM) came out at 540 ± 310 nM; at hKMT2D SET domain ([WRAD2] […], [SET] 125 nM), 5020 ± 680 nM; in series [6], 7630 ± 460 nM; in series [7], 9000 ± 2000 nM.

With SET/WRAD2 complex (Homo sapiens), the Km in series [8] (substrate Me1H3_1–21) worked out at 5.22 ± 0.32 µM; in series [8] (substrate Me2H3_1–21), 3.48 ± 0.36 µM.

Take `Nc1ncnc2c1ncn2[C@@H]1O[C@H](C[C@@H](N)CC[C@H](N)C(=O)O)[C@@H](O)[C@H]1O` [sinefungin]: on SET/WRAD2 complex [3] (setting [10]), the Ki worked out at 11000 ± 460 nM, the inhibition pattern entry is given as “C” and the “α (mixed inhibition model)” value is given as 21.1. Moreover, at SET/WRAD2 complex [3] (setting [11]), the Ki came to 10300 ± 790 nM, the inhibition pattern result is “UC” and the “α (mixed inhibition model)” value is reported as 0.16.
